Patent publication US5624923A, “Tricyclic diazepine vasopressin antagonists and oxytocin antagonists” (priority 1995, dated 1997)
Like-named read-outs stand apart in the source and are kept apart here.

What was measured:
[1] = target: T1, Rat Kidney Medullary V2 Receptors (Rattus norvegicus, UniProt Q00788); test: Binding Assay to Rat Kidney Medullary V2 Receptors
T1 construct: Medullary tissues from rat kidneys are dissected out; from tissue; host or cells: rat kidney medulla membranes
Method: Binding Assay to Rat Kidney Medullary V2 Receptors
Medullary tissues from rat kidneys are dissected out, cut into small pieces and soaked in a […] sodium chloride solution containing 1.0 mM EDTA with many changes of the liquid phase, until the solution is clear of blood. The tissue is homogenized in a 0.25M sucrose solution containing 1.0 mM EDTA and 0.1 mM PMSF using a Potter-Elvehjem homogenizer with a teflon pestle. The homogenate is filtered through several layers (4 layers) of cheese cloth. The filtrate is rehomogenized using a dounce homogenizer, with a tight fitting pestle. The final homogenate is centrifuged at 1500× g for 15 min. The nuclear pellet is discarded and the supernatant fluid recentrifuged at 40,000× g for 30 min. The resulting pellet formed contains a dark inner part with the exterior., slightly pink. The pink outer part is suspended in a small amount of 50.0 mM Tris. HCl buffer, pH 7.4. The protein content is determined by the Lowry's method (Lowry et al., J. Biol. Chem., 1953). The membrane suspension is stored at -70° C. in 50.0 mM Tris HCl, containing 0.2% inactivated BSA and 0.1 mM PMSF in aliquots of 1.0 ml containing 10.0 mg protein per ml of suspension until use in subsequent binding experiments.
(§1) The plates are left undisturbed on the bench top for 120 min to reach equilibrium. Non-specific binding is assessed in the presence of 1.0 μM of unlabeled ligand, added in 20 μl volume. For test compounds, these are solubilized in 50% dimethylsulfoxide (DMSO) and added in 20.0 μl volume to a final incubation volume of 200 μl. Upon completion of binding, the content of each well is filtered off, using a Brandel® cell Harvester (Gaithersburg, Md.). The radioactivity trapped on the filter disk by the ligand-receptor complex is assessed by liquid scintillation counting in a Packard LS Counter, with an efficiency of 65% for tritium. The data are analyzed for IC50 values by the LUNDON-2 program for competition (LUNDON SOFTWARE, Ohio).

Rat Hepatic V1 Receptors = target: T2, Rat Hepatic V1 Receptors (Rattus norvegicus, UniProt P30560); test: Binding Assay to Rat Hepatic V1 Receptors
T2 construct: Rat liver plasma membranes expressing the vasopressin V1 receptor subtypes; from tissue; host or cells: rat liver plasma membranes
T2 sequence (P30560 whole entry): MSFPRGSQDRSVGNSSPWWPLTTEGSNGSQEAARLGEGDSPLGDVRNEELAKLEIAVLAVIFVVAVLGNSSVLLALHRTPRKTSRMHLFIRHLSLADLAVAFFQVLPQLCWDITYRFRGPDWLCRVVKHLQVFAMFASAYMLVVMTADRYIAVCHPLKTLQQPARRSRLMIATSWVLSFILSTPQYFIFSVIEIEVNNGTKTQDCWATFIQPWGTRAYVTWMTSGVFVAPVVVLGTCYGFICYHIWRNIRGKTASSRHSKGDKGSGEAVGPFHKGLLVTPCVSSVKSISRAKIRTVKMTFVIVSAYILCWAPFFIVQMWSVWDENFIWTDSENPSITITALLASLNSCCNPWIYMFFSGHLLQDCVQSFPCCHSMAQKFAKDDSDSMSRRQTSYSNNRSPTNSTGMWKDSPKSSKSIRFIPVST
Method: Binding Assay to Rat Hepatic V1 Receptors
Rat liver plasma membranes expressing the vasopressin V1 receptor subtypes are isolated by sucrose density gradient according to the method described by Lesko et al., (1973). These membranes are quickly suspended in 50.0 mM Tris.HCl buffer, pH 7.4, containing 0.2% bovine serum albumin (BSA) and 0.1 mM phenylmethylsulfonylfluoride (PMSF) and kept frozen at -70° C. until used in subsequent binding experiments. For binding experiments, the following is added to the wells of a ninety-six well format microtiter plate: 100 μl of 100.0 mM Tris.HCl buffer containing 10.0 mM MgCl2, 0.2% heat inactivated BSA and a mixture of protease inhibitors: leupeptin, 1.0 mg %; aprotinin, 1.0 mg %; 1,10-phenanthroiine,2.0 mg %; trypsin inhibitor, 10.0 mg % and 0.1 mM PMSF, 20.0 μl of [phenylalanyl-3,4,5, -^3 H] vasopressin (S.A. 45.1 Ci/mmole) at 0.8 nM, and the reaction initiated by the addition of 80 μl of tissue membranes containing 20 μg of tissue protein. The plates are kept undisturbed on the bench top at room temperature for 120 min. to reach equilibrium. Non-specific samples are assayed in the presence of 0.1 μM of the unlabeled antagonist phenylalanylvasopressin, added in 20.0 μl volume.
as §1, with “For” for “The plates are left undisturbed on the bench top for 120 min to reach equilibrium. Non-specific binding is assessed in the presence of 1.0 μM of unlabeled ligand, added in 20 μl volume. For”, “μl .” for “μl.”

Vasopressin V1 = Vasopressin V1 Antagonist Activity in Conscious Rats (vasopressin vasopressor response); format: in vivo, rat; set-up: Average Change: unit not given here; conditions: 10 mg/kg i.v., SHR
Method: Vasopressin V1 Antagonist Activity in Conscious Rats
Conscious rats are restrained in a supine position with elastic tape. The area at the base of the tail is locally anesthetized by subcutaneous infiltration with 2% procaine (0.2 ml). Using aseptic technique the ventral caudal tail artery is isolated and a cannula made of PE 10 and 20 (heat-fused) tubing is passed into the lower abdominal aorta. The cannula is secured, heparinized (1000 i.u./cc), sealed and the wound closed with one or two stitches of Dexon 4-0. The caudal vein is also cannulated in the same manner for intravenous drug administration. The duration of the surgery is approximately 5 minutes. Additional local anesthesia (2% procaine or lidocaine) is provided as needed.
The animals are placed in plastic restraining cages in an upright position. The cannula is attached to a Statham P23Db pressure transducer and pulsatile blood pressure is recorded. […] The vasopressin injections are repeated 30,60,90,120,180,240 and 300 min. later. Percentage of antagonism by the compound is calculated using the pre-drug vasopressin vasopressor response as 100%.

[2] = rat kidney medulla membranes, read-out: V2 IC50
[3] = rat liver membranes, read-out: V1 IC50

T1 sequence (Q00788 whole entry): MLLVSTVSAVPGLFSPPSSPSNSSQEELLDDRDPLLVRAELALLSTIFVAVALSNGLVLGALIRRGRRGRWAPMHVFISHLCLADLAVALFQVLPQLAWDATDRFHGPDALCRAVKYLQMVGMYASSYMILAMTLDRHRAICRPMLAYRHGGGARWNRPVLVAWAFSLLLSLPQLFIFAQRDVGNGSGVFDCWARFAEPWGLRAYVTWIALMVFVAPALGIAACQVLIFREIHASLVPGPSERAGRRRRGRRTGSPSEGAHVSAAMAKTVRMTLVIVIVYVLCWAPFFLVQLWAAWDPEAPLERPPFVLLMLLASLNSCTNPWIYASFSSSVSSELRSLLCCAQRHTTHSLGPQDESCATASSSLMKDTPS

Cc1ccccc1C(=O)Nc1ccc(C(=O)N2Cc3cccn3C(=O)c3ccccc32)cc1 [Example 40, 2-Methyl-N-[4-[(5-oxo-5H-pyrrolo[2,1-c]-[1,4]benzodiazepin 10(11H)-yl)carbonyl]phenyl]benzamide]
IC50 [1, 2]: 120 nM | IC50 (Rat Hepatic V1 Receptors; [3]): 2400 nM

Cc1ccccc1C(=O)Nc1ccc(C(=O)N2Cc3ccc(Cl)n3Cc3ccccc32)cc1 [Example 41, N-[4-(3-Chloro-5H-pyrrolo[2,1c][1,4]benzodiazepine10(11H)ylcarbonyl)phenyl]-2-methylbenzamide]
% Inhibition (Vasopressin V1; VAS 0.01 i.u./kg, 30 min): 45% | Average Change (Vasopressin V1; VAS 0.01 i.u./kg, 30 min): 12 | % Inhibition (Vasopressin V1; VAS 0.01 i.u./kg, 60 min): 59% | Average Change (Vasopressin V1; VAS 0.01 i.u./kg, 60 min): 9 | % Inhibition (Vasopressin V1; VAS 0.01 i.u./kg, 90 min): 36% | Average Change (Vasopressin V1; VAS 0.01 i.u./kg, 90 min): 14 | % Inhibition (Vasopressin V1; VAS 0.01 i.u./kg, 120 min): 36% | Average Change (Vasopressin V1; VAS 0.01 i.u./kg, 120 min): 14 | % Inhibition (Vasopressin V1; VAS 0.01 i.u./kg, 180 min): 39% | Average Change (Vasopressin V1; VAS 0.01 i.u./kg, 180 min): 13.5 | % Inhibition (Vasopressin V1; VAS 0.01 i.u./kg, 240 min): 43% | Average Change (Vasopressin V1; VAS 0.01 i.u./kg, 240 min): 12.5 | % Inhibition (Vasopressin V1; VAS 0.01 i.u./kg, 300 min): 32% | Average Change (Vasopressin V1; VAS 0.01 i.u./kg, 300 min): 15 | % Inhibition (Vasopressin V1; VAS 0.02 i.u./kg, 30 min): 53% | Average Change (Vasopressin V1; VAS 0.02 i.u./kg, 30 min): 23.5 | % Inhibition (Vasopressin V1; VAS 0.02 i.u./kg, 60 min): 64% | Average Change (Vasopressin V1; VAS 0.02 i.u./kg, 60 min): 18 | % Inhibition (Vasopressin V1; VAS 0.02 i.u./kg, 90 min): 55% | Average Change (Vasopressin V1; VAS 0.02 i.u./kg, 90 min): 22.5 | % Inhibition (Vasopressin V1; VAS 0.02 i.u./kg, 120 min): 67% | Average Change (Vasopressin V1; VAS 0.02 i.u./kg, 120 min): 16.5 | % Inhibition (Vasopressin V1; VAS 0.02 i.u./kg, 180 min): 58% | Average Change (Vasopressin V1; VAS 0.02 i.u./kg, 180 min): 21 | % Inhibition (Vasopressin V1; VAS 0.02 i.u./kg, 240 min): 53% | Average Change (Vasopressin V1; VAS 0.02 i.u./kg, 240 min): 23.5 | % Inhibition (Vasopressin V1; VAS 0.02 i.u./kg, 300 min): 47% | Average Change (Vasopressin V1; VAS 0.02 i.u./kg, 300 min): 27 | IC50 [1, 2]: 17 nM | IC50 (Rat Hepatic V1 Receptors; [3]): 37 nM

CCOc1ccccc1C(=O)Nc1ccc(C(=O)N2Cc3cccn3Cc3ccccc32)cc1 [Example 84, N-[4-(5H-Pyrrolo[2,1-c][1,4]benzodiazepin-10(11H)-ylcarbonyl)phenyl]-2-ethoxybenzamide]
% Inhibition (Vasopressin V1; VAS 0.01 i.u./kg, 30 min): 77% | Average Change (Vasopressin V1; VAS 0.01 i.u./kg, 30 min): 10.5 | % Inhibition (Vasopressin V1; VAS 0.01 i.u./kg, 60 min): 64% | Average Change (Vasopressin V1; VAS 0.01 i.u./kg, 60 min): 16.5 | % Inhibition (Vasopressin V1; VAS 0.01 i.u./kg, 90 min): 72% | Average Change (Vasopressin V1; VAS 0.01 i.u./kg, 90 min): 13 | % Inhibition (Vasopressin V1; VAS 0.01 i.u./kg, 120 min): 58% | Average Change (Vasopressin V1; VAS 0.01 i.u./kg, 120 min): 19.5 | % Inhibition (Vasopressin V1; VAS 0.01 i.u./kg, 180 min): 47% | Average Change (Vasopressin V1; VAS 0.01 i.u./kg, 180 min): 24.5 | % Inhibition (Vasopressin V1; VAS 0.01 i.u./kg, 240 min): 43% | Average Change (Vasopressin V1; VAS 0.01 i.u./kg, 240 min): 26 | % Inhibition (Vasopressin V1; VAS 0.01 i.u./kg, 300 min): 51% | Average Change (Vasopressin V1; VAS 0.01 i.u./kg, 300 min): 22.5 | % Inhibition (Vasopressin V1; VAS 0.02 i.u./kg, 30 min): 76% | Average Change (Vasopressin V1; VAS 0.02 i.u./kg, 30 min): 14.5 | % Inhibition (Vasopressin V1; VAS 0.02 i.u./kg, 60 min): 45% | Average Change (Vasopressin V1; VAS 0.02 i.u./kg, 60 min): 33.5 | % Inhibition (Vasopressin V1; VAS 0.02 i.u./kg, 90 min): 57% | Average Change (Vasopressin V1; VAS 0.02 i.u./kg, 90 min): 26 | % Inhibition (Vasopressin V1; VAS 0.02 i.u./kg, 120 min): 47% | Average Change (Vasopressin V1; VAS 0.02 i.u./kg, 120 min): 32.5 | % Inhibition (Vasopressin V1; VAS 0.02 i.u./kg, 180 min): 48% | Average Change (Vasopressin V1; VAS 0.02 i.u./kg, 180 min): 31.5 | % Inhibition (Vasopressin V1; VAS 0.02 i.u./kg, 240 min): 39% | Average Change (Vasopressin V1; VAS 0.02 i.u./kg, 240 min): 37 | % Inhibition (Vasopressin V1; VAS 0.02 i.u./kg, 300 min): 30% | Average Change (Vasopressin V1; VAS 0.02 i.u./kg, 300 min): 43 | IC50 [1, 2]: 77 nM | IC50 (Rat Hepatic V1 Receptors; [3]): 45 nM

Cc1ccc(C(=O)Nc2ccc(C(=O)N3Cc4cccn4Cc4ccccc43)cc2)s1 [Example 355, N-[4-(5H-Pyrrolo[2,1-c][1,4]benzodiazepin-10(11)ylcarbonyl)phenyl]-5-methyl-2-thiophenecarboxamide]
IC50 [1, 2]: 350 nM | IC50 (Rat Hepatic V1 Receptors; [3]): 165 nM

O=C(c1ccc(NP(=O)(Oc2ccccc2)Oc2ccccc2)cc1)N1Cc2cccn2Cc2ccccc21 [Example 492]
IC50 [1]: 3200 nM | IC50 (Rat Hepatic V1 Receptors): 160 nM

O=C(c1ccc(NS(=O)(=O)c2cc(Cl)ccc2Cl)cc1)N1Cc2cccn2Cc2ccccc21 [Example 493, 10-[4-[[(2,5-Dichlorophenyl)sulfonyl]amino]benzoyl]-10,11-dihydro-5H-pyrrolo[2,1-c][1,4]benzodiazepine]
inhibition at 10 µM ([1]; 10 μM, rat): 68% | IC50 (Rat Hepatic V1 Receptors; [3]): 140 nM

O=C(c1ccc(NS(=O)(=O)Cc2ccccc2)cc1)N1Cc2cccn2Cc2ccccc21 [Example 494, 10-[4-[[(Phenylmethyl)sulfonyl]amino]benzoyl]-10,11-dihydro-5H-pyrrolo[2,1-c][1,4]benzodiazepine]
IC50 [1, 2]: 5800 nM | IC50 (Rat Hepatic V1 Receptors; [3]): 110 nM

Cc1ccccc1C(=O)Nc1ccc(C(=O)N2Cc3ccc(CN(C)C)n3Cc3ccccc32)cc1 [Example 660]
IC50 [1, 2]: 64 nM | IC50 (Rat Hepatic V1 Receptors; [3]): 73 nM

Cc1ccccc1C(=O)Nc1ccc(C(=O)N2Cc3ccc(CN4CCCCC4)n3Cc3ccccc32)cc1 [Example 661, N-[4-[[3-(1-piperidinylmethyl)-5H-pyrrolo[2,1-c][1,4]benzodiazepin-10(11H)-yl]carbonyl]phenyl]-2-methyl-benzamide]
IC50 [1, 2]: 57 nM | IC50 (Rat Hepatic V1 Receptors; [3]): 57 nM

Cc1ccccc1C(=O)Nc1ccc(C(=O)N2Cc3ccc(CN4CCOCC4)n3Cc3ccccc32)cc1 [Example 662, N-[4-[[3-(4-morpholinomethyl)-5H-pyrrolo[2,1-c][1,4]benzodiazepin-10(11H)-yl]carbonyl]phenyl]-2-methyl-benzamide]
IC50 [1, 2]: 35 nM | IC50 (Rat Hepatic V1 Receptors; [3]): 40 nM

Cc1ccccc1C(=O)Nc1ccc(C(=O)N2Cc3ccc(CN4CCN(Cc5ccccc5)CC4)n3Cc3ccccc32)cc1 [Example 663, N-[4-[[3-[[4-(phenylmethyl)-1-piperazinyl]methyl]-5H-pyrrolo[2,1-c][1,4]-benzodiazepin-10(11H)-yl]carbonyl]-phenyl]-2-methylbenzamide]
IC50 [1, 2]: 25 nM | IC50 (Rat Hepatic V1 Receptors; [3]): 9 nM

CC(=O)c1ccc2n1Cc1ccccc1N(C(=O)c1ccc(NC(=O)c3ccc(Cl)cc3Cl)cc1)C2 [Example 670, N-[4-[(3-Acetyl-5H-pyrrolo[2,1-c][1,4]benzodiazepin-10(11H)-yl]carbonyl]phenyl]-2,4-dichlorobenzamide]
IC50 [1, 2]: 290 nM | IC50 (Rat Hepatic V1 Receptors; [3]): 1100 nM

O=C(Nc1ccc(C(=O)N2Cc3cccn3Cc3ccccc32)c(Cl)c1)c1cccc(C(F)(F)F)c1F [Example 699, N-[4-(5H-pyrrolo[2,1-c][1,4]benzodiazepin-10(11H)-ylcarbonyl)-3-chloro-phenyl]-2-fluoro-3-(trifluoromethyl)benzamide]
inhibition at 1 µM ([1]; 1 μM, rat): 100% | inhibition at 1 µM (Rat Hepatic V1 Receptors; 2 h, 1 μM, rat): 19%
